Reference: patent US20250353820A1, “ANTIVIRAL PYRAZOLOPYRIDINONE COMPOUNDS” (Novartis AG, priority 2019, published 2025)

Molecular target: human HSV DNA polymerase UL30 (Human herpesvirus 1 (strain 17) (HHV-1) (Human herpes simplex virus 1), UniProt P04293)
Assay: biochemical
Settings: 625 pM HSV polymerase, 20 minutes at room temperature; read-out: HSV-polymerase Biochemical IC50

| SMILES | IC50 |
| --- | --- |
| Cn1nc(C(=O)NCc2ccc(C#N)cc2)c2c1C(=O)N(CC1(S(=O)(=O)NC3COC3)CC1)CC2 [Example 132, N-(4-Cyanobenzyl)-1-methyl-6-((1-(N-(oxetan-3-yl)sulfamoyl)cyclopropyl)methyl)-7-oxo-4,5,6,7-tetrahydro-1H-pyrazolo[3,4-c]pyridine-3-carboxamide] | 451 nM |
| Cn1nc(C(=O)NCc2ccc(C#N)cc2)c2c1C(=O)N(CC1(S(=O)(=O)N3CCNCC3)CC1)CC2 [Example 133, N-(4-Cyanobenzyl)-1-methyl-7-oxo-6-((1-(piperazin-1-ylsulfonyl)cyclopropyl)methyl)-4,5,6,7-tetrahydro-1H-pyrazolo[3,4-c]pyridine-3-carboxamide] | 258 nM |
| Cn1nc(C(=O)NCc2ccc(C#N)cc2)c2c1C(=O)N(CC1(S(=O)(=O)NCCCN)CC1)CC2 [Example 134, 6-((1-(N-(3-Aminopropyl)sulfamoyl)cyclopropyl)methyl)-N-(4-cyanobenzyl)-1-methyl-7-oxo-4,5,6,7-tetrahydro-1H-pyrazolo[3,4-c]pyridine-3-carboxamide] | 282 nM |
| Cn1nc(C(=O)NCc2ccc(C#N)cc2)c2c1C(=O)N(CC1(S(=O)(=O)NCCN)CC1)CC2 [Example 135, 6-((1-(N-(2-Aminoethyl)sulfamoyl)cyclopropyl)methyl)-N-(4-cyanobenzyl)-1-methyl-7-oxo-4,5,6,7-tetrahydro-1H-pyrazolo[3,4-c]pyridine-3-carboxamide] | 1090 nM |
| CN1CCN(S(=O)(=O)C2(CN3CCc4c(C(=O)NCc5ccc(C#N)cc5)nn(C)c4C3=O)CC2)CC1 [Example 136, N-(4-Cyanobenzyl)-1-methyl-6-((1-((4-methylpiperazin-1-yl)sulfonyl)cyclopropyl)methyl)-7-oxo-4,5,6,7-tetrahydro-1H-pyrazolo[3,4-c]pyridine-3-carboxamide] | 243 nM |
| Cn1nc(C(=O)NCc2ccc(C#N)cc2)c2c1C(=O)N(CC1(S(=O)(=O)NC3CCNCC3)CC1)CC2 [Example 137, N-(4-Cyanobenzyl)-1-methyl-7-oxo-6-((1-(N-(piperidin-4-yl)sulfamoyl)cyclopropyl)methyl)-4,5,6,7-tetrahydro-1H-pyrazolo[3,4-c]pyridine-3-carboxamide] | 691 nM |
| Cn1nc(C(=O)NCc2ccc(C#N)cc2)c2c1C(=O)N(CC1(S(=O)(=O)N3CCC(N)CC3)CC1)CC2 [Example 138, 6-((1-((4-Aminopiperidin-1-yl)sulfonyl)cyclopropyl)methyl)-N-(4-cyanobenzyl)-1-methyl-7-oxo-4,5,6,7-tetrahydro-1H-pyrazolo[3,4-c]pyridine-3-carboxamide] | 326 nM |
| Cn1nc(C(=O)NCc2ccc(C#N)cc2)c2c1C(=O)N(CC1(S(=O)(=O)N3C[C@@H](N)[C@H](O)C3)CC1)CC2 [Example 139, 6-((1-(((3R,4R)-3-Amino-4-hydroxypyrrolidin-1-yl)sulfonyl)cyclopropyl)methyl)-N-(4-cyanobenzyl)-1-methyl-7-oxo-4,5,6,7-tetrahydro-1H-pyrazolo[3,4-c]pyridine-3-carboxamide] | 143 nM |
| Cn1nc(C(=O)NCc2ccc(C#N)cc2)c2c1C(=O)N(CC1(S(=O)(=O)N3C[C@H](N)[C@@H](O)C3)CC1)CC2 [Example 140, 6-((1-(((3S,4S)-3-Amino-4-hydroxypyrrolidin-1-yl)sulfonyl)cyclopropyl)methyl)-N-(4-cyanobenzyl)-1-methyl-7-oxo-4,5,6,7-tetrahydro-1H-pyrazolo[3,4-c]pyridine-3-carboxamide] | 147 nM |
| Cn1nc(C(=O)NCc2ccc(C#N)cc2)c2c1C(=O)N(CC1(S(=O)(=O)N3CC[C@@H](N)C3)CC1)CC2 [Example 141, (R)-6-((1-((3-Aminopyrrolidin-1-yl)sulfonyl)cyclopropyl)methyl)-N-(4-cyanobenzyl)-1-methyl-7-oxo-4,5,6,7-tetrahydro-1H-pyrazolo[3,4-c]pyridine-3-carboxamide] | 192 nM |
| Cn1nc(C(=O)NCc2ccc(C#N)cc2)c2c1C(=O)N(CC1(S(=O)(=O)N3CC[C@H](N)C3)CC1)CC2 [Example 142, (S)-6-((1-((3-Aminopyrrolidin-1-yl)sulfonyl)cyclopropyl)methyl)-N-(4-cyanobenzyl)-1-methyl-7-oxo-4,5,6,7-tetrahydro-1H-pyrazolo[3,4-c]pyridine-3-carboxamide] | 268 nM |
| Cn1nc(C(=O)NCc2ccc(Cl)cc2)c2c1C(=O)N(CC1(S(=O)(=O)NCCO)CC1)CC2 [Example 143, N-(4-Chlorobenzyl)-6-((1-(N-(2-hydroxyethyl)sulfamoyl)cyclopropyl)methyl)-1-methyl-7-oxo-4,5,6,7-tetrahydro-1H-pyrazolo[3,4-c]pyridine-3-carboxamide] | 344 nM |
| CN(CCO)S(=O)(=O)C1(CN2CCc3c(C(=O)NCc4ccc(Cl)cc4)nn(C)c3C2=O)CC1 [Example 144, N-(4-Chlorobenzyl)-6-((1-(N-(2-hydroxyethyl)-N-methylsulfamoyl)cyclopropyl)methyl)-1-methyl-7-oxo-4,5,6,7-tetrahydro-1H-pyrazolo[3,4-c]pyridine-3-carboxamide] | 67 nM |
| Cn1nc(C(=O)NCc2ccc(C#N)cc2)c2c1C(=O)N(CC1(S(=O)(=O)NCCO)CC1)CC2 [Example 145, N-(4-Cyanobenzyl)-6-((1-(N-(2-hydroxyethyl)sulfamoyl)cyclopropyl)methyl)-1-methyl-7-oxo-4,5,6,7-tetrahydro-1H-pyrazolo[3,4-c]pyridine-3-carboxamide] | 237 nM |
| CN(CCO)S(=O)(=O)C1(CN2CCc3c(C(=O)NCc4ccc(C#N)cc4)nn(C)c3C2=O)CC1 [Example 146, N-(4-Cyanobenzyl)-6-((1-(N-(2-hydroxyethyl)-N-methylsulfamoyl)cyclopropyl)methyl)-1-methyl-7-oxo-4,5,6,7-tetrahydro-1H-pyrazolo[3,4-c]pyridine-3-carboxamide] | 74 nM |
| CN(C(CO)CO)S(=O)(=O)C1(CN2CCc3c(C(=O)NCc4ccc(C#N)cc4)nn(C)c3C2=O)CC1 [Example 147, N-(4-Cyanobenzyl)-6-((1-(N-(1,3-dihydroxypropan-2-yl)-N-methylsulfamoyl)cyclopropyl)methyl)-1-methyl-7-oxo-4,5,6,7-tetrahydro-1H-pyrazolo[3,4-c]pyridine-3-carboxamide] | 644 nM |

| SMILES | IC50 |
| --- | --- |
| Cn1nc(C(=O)NCc2ccc(Cl)cc2)c2c1C(=O)N(CC1(S(=O)(=O)NC(C)(C)CO)CC1)CC2 [Example 148, N-(4-Chlorobenzyl)-6-((1-(N-(1-hydroxy-2-methylpropan-2-yl)sulfamoyl)cyclopropyl)methyl)-1-methyl-7-oxo-4,5,6,7-tetrahydro-1H-pyrazolo[3,4-c]pyridine-3-carboxamide] | 155 nM |
| Cn1nc(C(=O)NCc2ccc(C#N)cc2)c2c1C(=O)N(CC1(S(=O)(=O)NC(C)(C)CO)CC1)CC2 [Example 149, N-(4-Cyanobenzyl)-6-((1-(N-(1-hydroxy-2-methylpropan-2-yl)sulfamoyl)cyclopropyl)methyl)-1-methyl-7-oxo-4,5,6,7-tetrahydro-1H-pyrazolo[3,4-c]pyridine-3-carboxamide] | 161 nM |
| Cn1nc(C(=O)NCc2ccc(Cl)cc2)c2c1C(=O)N(CC1(S(=O)(=O)N3CC(O)C3)CC1)CC2 [Example 150, N-(4-Chlorobenzyl)-6-((1-((3-hydroxyazetidin-1-yl)sulfonyl)cyclopropyl)methyl)-1-methyl-7-oxo-4,5,6,7-tetrahydro-1H-pyrazolo[3,4-c]pyridine-3-carboxamide] | 81 nM |
| CNS(=O)(=O)C1(CN2CCc3c(C(=O)NCc4ccc(Cl)cc4)nn(C)c3C2=O)CC1 [Example 151, N-(4-Chlorobenzyl)-1-methyl-6-((1-(N-methylsulfamoyl)cyclopropyl)methyl)-7-oxo-4,5,6,7-tetrahydro-1H-pyrazolo[3,4-c]pyridine-3-carboxamide] | 118 nM |
| Cn1nc(C(=O)NCc2ccc(Cl)cc2)c2c1C(=O)N(CC1(S(=O)(=O)NCC(C)(C)O)CC1)CC2 [Example 152, N-(4-Chlorobenzyl)-6-((1-(N-(2-hydroxy-2-methylpropyl)sulfamoyl)cyclopropyl)methyl)-1-methyl-7-oxo-4,5,6,7-tetrahydro-1H-pyrazolo[3,4-c]pyridine-3-carboxamide] | 827 nM |
| Cn1nc(C(=O)NCc2ccc(Cl)cc2)c2c1C(=O)N(CC1(S(=O)(=O)NC(C)(CO)CO)CC1)CC2 [Example 153, N-(4-Chlorobenzyl)-6-((1-(N-(1,3-dihydroxy-2-methylpropan-2-yl)sulfamoyl)cyclopropyl)methyl)-1-methyl-7-oxo-4,5,6,7-tetrahydro-1H-pyrazolo[3,4-c]pyridine-3-carboxamide] | 292 nM |
| Cn1nc(C(=O)NCc2ccc(C#N)cc2)c2c1C(=O)N(CC1(S(=O)(=O)Nc3ccccn3)CC1)CC2 [Example 155, N-(4-Cyanobenzyl)-1-methyl-7-oxo-6-((1-(N-(pyridin-2-yl)sulfamoyl)cyclopropyl)methyl)-4,5,6,7-tetrahydro-1H-pyrazolo[3,4-c]pyridine-3-carboxamide] | 78 nM |
| Cn1ccc(NS(=O)(=O)C2(CN3CCc4c(C(=O)NCc5ccc(C#N)cc5)nn(C)c4C3=O)CC2)n1 [Example 156] | 62 nM |
| Cc1cccc(NS(=O)(=O)C2(CN3CCc4c(C(=O)NCc5ccc(C#N)cc5)nn(C)c4C3=O)CC2)n1 [Example 157] | 46 nM |
| Cn1nc(C(=O)NCc2ccc(Cl)cc2)c2c1C(=O)N(CC1(S(=O)(=O)Nc3ccccn3)CC1)CC2 [Example 158] | 58 nM |
| COc1cccnc1NS(=O)(=O)C1(CN2CCc3c(C(=O)NCc4ccc(C#N)cc4)nn(C)c3C2=O)CC1 [Example 159] | 423 nM |
| COc1ccc(C)nc1NS(=O)(=O)C1(CN2CCc3c(C(=O)NCc4ccc(C#N)cc4)nn(C)c3C2=O)CC1 [Example 160] | 301 nM |
| Cc1ncccc1NS(=O)(=O)C1(CN2CCc3c(C(=O)NCc4ccc(C#N)cc4)nn(C)c3C2=O)CC1 [Example 161] | 40 nM |
| COc1ncccc1NS(=O)(=O)C1(CN2CCc3c(C(=O)NCc4ccc(C#N)cc4)nn(C)c3C2=O)CC1 [Example 162] | 18 nM |
| COc1cccc(NS(=O)(=O)C2(CN3CCc4c(C(=O)NCc5ccc(C#N)cc5)nn(C)c4C3=O)CC2)n1 [Example 163] | 36 nM |
| Cc1cccnc1NS(=O)(=O)C1(CN2CCc3c(C(=O)NCc4ccc(C#N)cc4)nn(C)c3C2=O)CC1 [Example 164] | 185 nM |
